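How tested: cells in 96-well plates exposed to compound for 48 hours at five concentrations. GI50 = concentration required for 50% inhibition of growth.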 The source made the active and inactive calls. Rule as the data show it: active = GI50 up to about 1.1 µM and inactive = higher.
How the values were obtained:
Assay in all cases: DTP human tumour cell line panel, 48 h
COLO 205 = tested on: COLO 205
EKVX = tested on: EKVX
HOP-62 = tested on: HOP-62
HOP-92 = tested on: HOP-92
HT-29 = tested on: HT-29
IGROV-1 = tested on: IGROV-1
M14 = tested on: M14
NCI-H23 = tested on: NCI-H23
NCI-H460 = tested on: NCI-H460
OVCAR-3 = tested on: OVCAR-3
SF-268 = tested on: SF-268
SNB-19 = tested on: SNB-19
TK-10 = tested on: TK-10
UACC-62 = tested on: UACC-62
UO-31 = tested on: UO-31
NCI-H522 = tested on: NCI-H522
SK-MEL-5 = tested on: SK-MEL-5

| SMILES | GI50 (COLO 205) | GI50 (EKVX) | GI50 (HOP-62) | GI50 (HOP-92) | GI50 (HT-29) | GI50 (IGROV-1) | GI50 (M14) | GI50 (NCI-H23) | GI50 (NCI-H460) | GI50 (OVCAR-3) | GI50 (SF-268) | GI50 (SNB-19) | GI50 (TK-10) | GI50 (UACC-62) | GI50 (UO-31) | GI50 (NCI-H522) | GI50 (SK-MEL-5) |
| --- | --- | --- | --- | --- | --- | --- | --- | --- | --- | --- | --- | --- | --- | --- | --- | --- | --- |
| CCOC(=O)C1(Cc2ccc3ccccc3c2)CCCCCN1 (stereo unspecified) | 18.7 µM (inactive) | 69.5 µM (inactive) | 64.3 µM (inactive) | 13.9 µM (inactive) | 12.6 µM (inactive) | > 100 µM (inactive) | 20 µM (inactive) | 30 µM (inactive) | 18.4 µM (inactive) | 45.3 µM (inactive) | 58.5 µM (inactive) | 43.7 µM (inactive) | 54.1 µM (inactive) | 46.3 µM (inactive) | 20.3 µM (inactive) | – | – |
| CC1C2=CC=C(O2)C(C)(C)C2=CC=C(O2)C(C)(C)C2=CC=C(O2)C(C)(C)C2=CC=C1O2 | > 100 µM (inactive) | > 100 µM (inactive) | > 100 µM (inactive) | 18.9 µM (inactive) | > 100 µM (inactive) | > 100 µM (inactive) | – | > 100 µM (inactive) | > 100 µM (inactive) | – | > 100 µM (inactive) | > 100 µM (inactive) | > 100 µM (inactive) | – | – | > 100 µM (inactive) | – |
| CC1=C(C)C(=O)c2c(cc3ccccn23)C1=O | 20.3 µM (inactive) | 21.3 µM (inactive) | – | – | 18.5 µM (inactive) | 24.5 µM (inactive) | 14.2 µM (inactive) | 10.2 µM (inactive) | 15.5 µM (inactive) | 14.6 µM (inactive) | 20.9 µM (inactive) | 15.3 µM (inactive) | 27 µM (inactive) | 15.6 µM (inactive) | 24.3 µM (inactive) | – | 10.4 µM (inactive) |
| COc1cc([C@@H]2c3cc4c(cc3[C@@H](OC(=O)c3cccc(N)c3)C3COC(=O)[C@@H]32)OCO4)cc(OC)c1O (stereo partly specified) | 11.3 µM (inactive) | 27 µM (inactive) | 2.32 µM (inactive) | – | 3.13 µM (inactive) | 13.8 µM (inactive) | 0.933 µM (active) | 1.19 µM (inactive) | 0.671 µM (active) | 34.6 µM (inactive) | 1.47 µM (inactive) | 34.8 µM (inactive) | 59.3 µM (inactive) | 0.667 µM (active) | 5.26 µM (inactive) | – | 0.536 µM (active) |
| CN(c1ccccc1)c1c(Cl)c(=O)oc2c1ccc1occc12 | – | 33.3 µM (inactive) | – | 67.3 µM (inactive) | > 100 µM (inactive) | – | > 100 µM (inactive) | > 100 µM (inactive) | > 100 µM (inactive) | > 100 µM (inactive) | – | 59.7 µM (inactive) | > 100 µM (inactive) | 40.6 µM (inactive) | > 100 µM (inactive) | > 100 µM (inactive) | > 100 µM (inactive) |
| CCOC(=O)N1Cc2ccoc2C1 | > 100 µM (inactive) | > 100 µM (inactive) | > 100 µM (inactive) | > 100 µM (inactive) | > 100 µM (inactive) | > 100 µM (inactive) | > 100 µM (inactive) | > 100 µM (inactive) | > 100 µM (inactive) | > 100 µM (inactive) | 0.769 µM (active) | > 100 µM (inactive) | > 100 µM (inactive) | > 100 µM (inactive) | > 100 µM (inactive) | > 100 µM (inactive) | > 100 µM (inactive) |
| Nc1ccc(C2=N/C(=C\c3cccc(N)c3)C(=O)O2)cc1 | > 100 µM (inactive) | > 100 µM (inactive) | – | > 100 µM (inactive) | > 100 µM (inactive) | > 100 µM (inactive) | > 100 µM (inactive) | > 100 µM (inactive) | – | > 100 µM (inactive) | > 100 µM (inactive) | > 100 µM (inactive) | > 100 µM (inactive) | > 100 µM (inactive) | > 100 µM (inactive) | > 100 µM (inactive) | > 100 µM (inactive) |
| COC1OC(COCc2ccc(Cl)cc2)C(OCc2ccc(Cl)cc2)C1N=[N+]=[N-] (stereo unspecified) | > 100 µM (inactive) | > 100 µM (inactive) | – | 97.1 µM (inactive) | > 100 µM (inactive) | 72.3 µM (inactive) | > 100 µM (inactive) | 45.1 µM (inactive) | > 100 µM (inactive) | 47.8 µM (inactive) | – | > 100 µM (inactive) | > 100 µM (inactive) | 15.3 µM (inactive) | > 100 µM (inactive) | 85.1 µM (inactive) | 44 µM (inactive) |
| CCOC(=O)C1(C)CCCCC(=O)N1 (stereo unspecified) | > 100 µM (inactive) | > 100 µM (inactive) | > 100 µM (inactive) | > 100 µM (inactive) | > 100 µM (inactive) | > 100 µM (inactive) | > 100 µM (inactive) | > 100 µM (inactive) | > 100 µM (inactive) | > 100 µM (inactive) | > 100 µM (inactive) | > 100 µM (inactive) | > 100 µM (inactive) | > 100 µM (inactive) | > 100 µM (inactive) | – | – |
| CN(C)CCNC(=O)c1cccc2cc3c(Cl)cccc3nc12 | 1.01 µM (active) | 2.35 µM (inactive) | 0.718 µM (active) | 2.07 µM (inactive) | 0.889 µM (active) | 1.2 µM (inactive) | 2.12 µM (inactive) | 1.38 µM (inactive) | – | 1.82 µM (inactive) | – | 1.71 µM (inactive) | 1.95 µM (inactive) | 1.69 µM (inactive) | 2.55 µM (inactive) | 2.86 µM (inactive) | 1.71 µM (inactive) |

From ChEMBL document CHEMBL1201862, “PubChem BioAssay data set” (2004)
